Paper PMC3575251, “Urease inhibitory activities of β-boswellic acid derivatives” (DARU Journal of Pharmaceutical Sciences, 2013)

Molecular target: T1, Jack bean urease (Canavalia ensiformis, UniProt P07374)
T1 construct: purchased Fluka Co, Switzerland
Experiment: biochemical
Conditions: for inhibition at 50 µg/mL: read-out: Percent of inhibition (50 μg/ml)
Description: For urease inhibition assays after addition of phosphate buffer pH = 6.8, sonication was performed for 3 min, followed by centrifugation and evaluating absorbance of upper solution in λ = 278 nm which is attributed to the urease. By using following equation […], where c is the concentration of solution (mol/L), b the Length of the UV cell, we can calculate the concentration of initially urease solution in this way. After appropriate dilution, the concentration of enzyme solution adjusted 2 mg/ml.
The assay mixture, containing 50 μl (2 mg/ml) of Jack-bean urease and 100 μl of different concentration of test compounds, which were dissolved in ethanol 20% previously, was added to 850 μl of 25mM urea and pre-incubated for 0.5 h in water bath at 37°C. The urease reaction was stopped after 30 min incubation by following procedure.
Urease activity was determined by measuring ammonia production using the indophenol method as described by Weatherburn. After pre-incubation, 500 μl of phenol reagent (1% w/v phenol and 0.005% w/v sodium nitroprusside) and 500 μl of alkali reagent (1% w/v NaOH and 0.075% active chloride NaOCl) were added to 100 μl of incubation mixture and kept at 37°C for 30 min.
The absorbance was measured at 625 nm. […] Percentage inhibitions were calculated using the formula (100 – (OD sample / OD control) × 100).
The concentration that provokes an inhibition halfway between the minimum and maximum response of each compound (relative IC50) was determined by monitoring the inhibition effect of various concentrations of compounds in the assay. The IC50 values were then calculated using GraphPad Prism 5 software.

T1 sequence (P07374 whole entry, looked up): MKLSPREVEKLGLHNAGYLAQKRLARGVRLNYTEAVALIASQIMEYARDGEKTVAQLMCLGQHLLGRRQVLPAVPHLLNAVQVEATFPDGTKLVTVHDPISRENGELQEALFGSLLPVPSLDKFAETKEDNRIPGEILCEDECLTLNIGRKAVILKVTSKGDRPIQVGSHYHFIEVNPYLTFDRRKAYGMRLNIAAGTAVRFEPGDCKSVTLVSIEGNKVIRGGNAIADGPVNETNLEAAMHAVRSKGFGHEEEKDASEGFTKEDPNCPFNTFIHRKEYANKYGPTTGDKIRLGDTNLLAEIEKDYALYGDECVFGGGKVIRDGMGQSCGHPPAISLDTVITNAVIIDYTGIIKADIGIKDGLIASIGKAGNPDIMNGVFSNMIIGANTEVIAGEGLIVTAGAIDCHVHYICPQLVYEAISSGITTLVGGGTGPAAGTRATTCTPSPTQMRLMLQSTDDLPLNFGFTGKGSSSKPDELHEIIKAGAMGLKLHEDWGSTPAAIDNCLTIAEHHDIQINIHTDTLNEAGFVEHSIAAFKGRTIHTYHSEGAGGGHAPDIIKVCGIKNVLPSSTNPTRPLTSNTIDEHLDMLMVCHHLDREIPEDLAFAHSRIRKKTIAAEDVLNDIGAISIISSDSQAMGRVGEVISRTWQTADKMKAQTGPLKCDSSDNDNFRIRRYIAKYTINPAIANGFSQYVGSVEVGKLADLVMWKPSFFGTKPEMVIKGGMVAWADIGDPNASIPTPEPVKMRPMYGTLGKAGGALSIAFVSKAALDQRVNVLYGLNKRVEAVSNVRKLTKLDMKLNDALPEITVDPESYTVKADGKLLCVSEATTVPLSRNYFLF

Row | Structure (SMILES) | IC50 [µM] | inhibition at 50 µg/mL [%] | Percent of inhibition (50 μg/ml) (50 μg/ml test compound, Jack bean urease, 25 mM urea, 37°C) [%]
1 | CC(=O)O[C@@H]1CC[C@@]2(C)[C@@H](CC[C@]3(C)[C@@H]2C(=O)C=C2[C@@H]4[C@@H](C)[C@H](C)CC[C@]4(C)CC[C@]23C)[C@@]1(C)C(=O)O [compound 3, 3-O-acetyl-11-keto-β-boswellic acid] | 16.34 ± 0.063 | 37.4 | 
2 | CC(=O)OC1CCC2(C)C(CCC3(C)C2C(O)C=C2C4C(C)C(C)CCC4(C)CCC23C)C1(C)C(=O)O (stereo not drawn) [compound 2, 3-O-acetyl-11-hydroxy-β-boswellic acid] | 9.21 ± 0.069 | 56.2 | 
3 | NC(N)=S [Thiourea, thiourea, reference compound] |  |  | 88.0
4 | C[C@H]1[C@H](C)CC[C@]2(C)CC[C@]3(C)C(=CC(=O)[C@@H]4[C@@]5(C)CC[C@@H](O)[C@](C)(C(=O)O)[C@@H]5CC[C@]43C)[C@H]12 [compound 4, 11-keto-β-boswellic acid] | 85.23 ± 0.065 | 39.1 | 
